The results in this text go back to article PMC5123592 (Nature chemistry, 2016).

Test [1] addresses T1, ZMPSTE24 (Homo sapiens, UniProt O75844).
T1 sequence (O75844 1-475): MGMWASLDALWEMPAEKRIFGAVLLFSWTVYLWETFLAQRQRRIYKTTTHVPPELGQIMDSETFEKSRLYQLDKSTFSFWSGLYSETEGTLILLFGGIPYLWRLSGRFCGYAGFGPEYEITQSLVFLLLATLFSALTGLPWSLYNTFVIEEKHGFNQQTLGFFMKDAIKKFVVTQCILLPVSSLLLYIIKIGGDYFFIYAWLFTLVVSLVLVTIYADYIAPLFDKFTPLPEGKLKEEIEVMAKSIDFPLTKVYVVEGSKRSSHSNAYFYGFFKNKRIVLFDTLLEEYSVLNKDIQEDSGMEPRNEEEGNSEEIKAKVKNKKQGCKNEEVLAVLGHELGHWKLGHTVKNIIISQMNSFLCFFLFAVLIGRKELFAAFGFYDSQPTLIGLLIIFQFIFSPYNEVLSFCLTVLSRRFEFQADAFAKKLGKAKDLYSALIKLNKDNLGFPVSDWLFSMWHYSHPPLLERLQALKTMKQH
Kind of test: native mass spectrometry. To be noted: 15 μM drug, equimolar ZMPSTE24, C8E4. Type of test: binding.

The target of test [2] is T1, ZMPSTE24. Kind of test: native mass spectrometry titration. It is filed as binding.

Turning to `CC(C)CN(C[C@@H](O)[C@H](Cc1ccccc1)NC(=O)O[C@H]1CCOC1)S(=O)(=O)c1ccc(N)cc1` [amprenavir], the “binding observed at 15 μM” value on ZMPSTE24 [1] is “binding of amprenavir and ritonavir were observed, albeit in lower amounts”.

For the compound `Cc1cccc(C)c1OCC(=O)N[C@@H](Cc1ccccc1)[C@@H](O)C[C@H](Cc1ccccc1)NC(=O)[C@H](C(C)C)N1CCCNC1=O` [lopinavir], the Kd at ZMPSTE24 [2] came out at 25 ± 1.2 µM.
